# Results published in patent publication US9650334B2 (AbbVie Deutschland GmbH & Co. KG, priority 2013, dated 2017).
# Target: T1, human GlyT1c transporter (Homo sapiens, UniProt P48067)
# T1 sequence (P48067 1-706): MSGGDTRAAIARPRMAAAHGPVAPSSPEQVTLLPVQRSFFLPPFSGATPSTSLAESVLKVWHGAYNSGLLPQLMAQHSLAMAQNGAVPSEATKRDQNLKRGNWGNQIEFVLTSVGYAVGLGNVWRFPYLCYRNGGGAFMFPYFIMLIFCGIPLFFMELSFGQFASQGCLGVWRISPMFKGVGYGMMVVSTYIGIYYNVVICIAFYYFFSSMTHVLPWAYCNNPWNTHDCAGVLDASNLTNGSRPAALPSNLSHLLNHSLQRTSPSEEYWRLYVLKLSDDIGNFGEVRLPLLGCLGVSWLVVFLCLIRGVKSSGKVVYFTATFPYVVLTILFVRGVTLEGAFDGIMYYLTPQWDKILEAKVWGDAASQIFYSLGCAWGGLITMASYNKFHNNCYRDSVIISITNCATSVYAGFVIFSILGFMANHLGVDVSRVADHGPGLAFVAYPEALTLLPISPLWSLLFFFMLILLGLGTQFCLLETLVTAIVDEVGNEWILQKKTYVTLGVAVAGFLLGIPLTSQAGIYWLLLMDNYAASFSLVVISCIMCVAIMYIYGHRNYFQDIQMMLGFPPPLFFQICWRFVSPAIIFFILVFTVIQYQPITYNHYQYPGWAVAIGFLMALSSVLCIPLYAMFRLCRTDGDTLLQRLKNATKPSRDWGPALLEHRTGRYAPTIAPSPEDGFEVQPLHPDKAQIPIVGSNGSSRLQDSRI
# Assay: Radioligand binding assays using recombinant CHO cell membranes expressing human GlyT1
# Conditions: Ki, radioligand binding to human GlyT1c transporter-expressing CHO cell membranes
row,Molecule,Ki [nM]
1,"Cn1cnc(S(=O)(=O)N2CC3CCCN(C(=O)c4ccc(C(F)(F)F)cc4Cl)C3C2)c1 (centres unmarked) [Example 880, [2-chloro-4-(trifluoromethyl)phenyl]{6-[(1-methyl-1H-imidazol-4-yl)sulfonyl]octahydro-1H-pyrrolo[3,4-b]pyridin-1-yl}methanone]",≤ 1000
2,"Cn1cnc(S(=O)(=O)N2CC3CCCN(C(=O)c4ccc(Cl)cc4Cl)C3C2)c1 (centres unmarked) [Example 873, (2,4-dichlorophenyl){6-[(1-methyl-1H-imidazol-4-yl)sulfonyl]octahydro-1H-pyrrolo[3,4-b]pyridin-1-yl}methanone]",≤ 10000
3,"Cn1cnc(S(=O)(=O)N2CC3CCCCC3(NC(=O)c3ccc(Cl)cc3Cl)C2)c1 (centres unmarked) [Example 871, 2,4-dichloro-N-{2-[(1-methyl-1H-imidazol-4-yl)sulfonyl]octahydro-3aH-isoindol-3a-yl}benzamide]",≤ 100
4,"CCCCNC(=O)O[C@@H]1CN(S(=O)(=O)c2cn(C)cn2)C[C@H]1c1ccc(F)cc1 [Example 699, (3S,4R)-4-(4-fluorophenyl)-1-[(1-methyl-1H-imidazol-4-yl)sulfonyl]pyrrolidin-3-yl butylcarbamate]",≤ 1000
5,"Cn1cnc(S(=O)(=O)N2CC(c3ccccc3)C3(COC(=O)N3Cc3ccc(C(F)(F)F)cc3)C2)c1 (stereo not drawn) [Example 407, Trans-7-[(1-methyl-1H-imidazol-4-yl)sulfonyl]-9-phenyl-1-[4-(trifluoromethyl)benzyl]-3-oxa-1,7-diazaspiro[4.4]nonan-2-one]",≤ 10000
6,"C[C@@H]1C[C@@H](C)OC([C@H]2CN(S(=O)(=O)c3cn(C)cn3)C[C@@H]2Nc2cccc(OC(F)(F)F)c2)O1 (stereo partly drawn) [Example 921, (3R,4S)-4-[(4R,6R)-4,6-dimethyl-1,3-dioxan-2-yl]-1-[(1-methyl-1H-imidazol-4-yl)sulfonyl]-N-[3-(trifluoromethoxy)phenyl]pyrrolidin-3-amine]",≤ 100
7,"Cn1cnc(S(=O)(=O)N2C[C@H](NC3CCc4ccccc43)[C@@H](C3OCCCO3)C2)c1 (stereo partly drawn) [Example 903, (3R,4S)-N-(2,3-dihydro-1H-inden-1-yl)-4-(1,3-dioxan-2-yl)-1-[(1-methyl-1H-imidazol-4-yl)sulfonyl]pyrrolidin-3-amine]",≤ 10
8,"CCCCc1cn([C@H]2CN(S(=O)(=O)c3cn(C)cn3)C[C@@H]2c2ccccc2)nn1 [Example 668, 4-butyl-1-{(3R,4S)-1-[(1-methyl-1H-imidazol-4-yl)sulfonyl]-4-phenylpyrrolidin-3-yl}-1H-1,2,3-triazole]",≤ 10000
9,"Cn1cnc(S(=O)(=O)N2C[C@@H]3c4ccccc4C[C@@]3(NCc3ccc(C(F)(F)F)cc3Cl)C2)c1 (relative stereo) [Example 885, trans-N-[2-chloro-4-(trifluoromethyl)benzyl]-2-[(1-methyl-1H-imidazol-4-yl)sulfonyl]-2,3,3a,8-tetrahydroindeno[1,2-c]pyrrol-8a(1H)-amine]",≤ 100
10,"Cn1cnc(S(=O)(=O)N2CC(Nc3ccc(F)c(C(F)(F)F)c3)C(c3ccc(F)cn3)C2)c1 (centres unmarked) [Example 927, 4-(5-fluoropyridin-2-yl)-N-[4-fluoro-3-(trifluoromethyl)phenyl]-1-[(1-methyl-1H-imidazol-4-yl)sulfonyl]pyrrolidin-3-amine]",≤ 10
11,"Cn1cnc(S(=O)(=O)N2C[C@H](c3ccc(F)cc3)[C@@H](N3CCS(=O)(=O)CC3)C2)c1 [Example 864, 4-{(3R,4S)-4-(4-fluorophenyl)-1-[(1-methyl-1H-imidazol-4-yl)sulfonyl]pyrrolidin-3-yl}thiomorpholine 1,1-dioxide]",≤ 10000
12,"Cc1ccc(C(N[C@H]2CN(S(=O)(=O)c3cn(C)cn3)C[C@@H]2c2ccc(F)cc2)C(F)(F)F)cc1 (stereo partly drawn) [Example 876, (3R,4S)-4-(4-fluorophenyl)-1-[(1-methyl-1H-imidazol-4-yl)sulfonyl]-N-[2,2,2-trifluoro-1-(4-methylphenyl)ethyl]pyrrolidin-3-amine]",≤ 1000
13,"Cn1cnc(S(=O)(=O)N2C[C@@H](c3ccccc3)[C@](C)(Nc3cc(C(F)(F)F)ccn3)C2)c1 (relative stereo) [Example 388, N-{Trans-3-methyl-1-[(1-methyl-1H-imidazol-4-yl)sulfonyl]-4-phenylpyrrolidin-3-yl}-4-(trifluoromethyl)pyridin-2-amine]",≤ 100
14,"Cc1nc(CN[C@H]2CN(S(=O)(=O)c3cn(C)cn3)C[C@@H]2c2ccccc2)sc1Br [Example 559, (3R,4S)-N-[(5-bromo-4-methyl-1,3-thiazol-2-yl)methyl]-1-[(1-methyl-1H-imidazol-4-yl)sulfonyl]-4-phenylpyrrolidin-3-amine]",≤ 1000
15,"Cn1cnc(S(=O)(=O)N2C[C@H](Nc3cccc(OCC(F)F)c3)[C@@H](C3OCCCO3)C2)c1 [Example 928, (3R,4S)-N-[3-(2,2-difluoroethoxy)phenyl]-4-(1,3-dioxan-2-yl)-1-[(1-methyl-1H-imidazol-4-yl)sulfonyl]pyrrolidin-3-amine]",≤ 10
16,"Cn1cnc(S(=O)(=O)N2C[C@H](Nc3cccc(OC(F)(F)F)c3)[C@@H](C3OCC(C)(C)CO3)C2)c1 [Example 900, (3R,4S)-4-(5,5-dimethyl-1,3-dioxan-2-yl)-1-[(1-methyl-1H-imidazol-4-yl)sulfonyl]-N-[3-(trifluoromethoxy)phenyl]pyrrolidin-3-amine]",≤ 1000
17,"Cn1cnc(S(=O)(=O)N2CC(Nc3cccc(OC(F)(F)F)c3)c3ccccc32)c1 (centres unmarked) [Example 887, 1-[(1-methyl-1H-imidazol-4-yl)sulfonyl]-N-[3-(trifluoromethoxy)phenyl]-2,3-dihydro-1H-indol-3-amine]",≤ 100
18,"C=C(C)C1CCC(C)C(N[C@H]2CN(S(=O)(=O)c3cn(C)cn3)C[C@@H]2c2ccc(F)cc2)C1 (stereo partly drawn) [Example 867, (3R,4S)-4-(4-fluorophenyl)-1-[(1-methyl-1H-imidazol-4-yl)sulfonyl]-N-[2-methyl-5-(prop-1-en-2-yl)cyclohexyl]pyrrolidin-3-amine]",≤ 100
19,"Cn1cnc(S(=O)(=O)N2CC3CCCCC3(NCc3ccc(C(F)(F)F)cc3)C2)c1 (centres unmarked) [Example 884, 2-[(1-methyl-1H-imidazol-4-yl)sulfonyl]-N-[4-(trifluoromethyl)benzyl]octahydro-3aH-isoindol-3a-amine]",≤ 100
20,"CCS(=O)(=O)N1C[C@@H](NC(=O)c2ccc(C(F)(F)F)cc2)[C@H](c2ccccc2)C1 (relative stereo) [Example 122, N-[trans-1-(ethylsulfonyl)-4-phenylpyrrolidin-3-yl]-4-(trifluoromethyl)benzamide]",≤ 10000
21,"CN1CCCCC1C1CN(S(=O)(=O)c2cn(C)cn2)CC1NC1CCc2ccccc21 (centres unmarked) [Example 893, N-(2,3-dihydro-1H-inden-1-yl)-1-[(1-methyl-1H-imidazol-4-yl)sulfonyl]-4-(1-methylpiperidin-2-yl)pyrrolidin-3-amine]",≤ 100
22,"Cn1cnc(S(=O)(=O)N2[C@@H]3CC[C@H]2[C@H](c2ccc(F)cc2)[C@H]3Nc2ccc(F)c(C(F)(F)F)c2)c1 [Example 877, (1R,2R,3R,4S)-3-(4-fluorophenyl)-N-[4-fluoro-3-(trifluoromethyl)phenyl]-7-[(1-methyl-1H-imidazol-4-yl)sulfonyl]-7-azabicyclo[2.2.1]heptan-2-amine]",≤ 10000
23,"Cn1cnc(S(=O)(=O)N2C[C@H](Nc3cc(OCC(F)(F)F)ccn3)[C@@H](c3ccccc3)C2)c1 [Example 809, N-{(3R,4S)-1-[(1-methyl-1H-imidazol-4-yl)sulfonyl]-4-phenylpyrrolidin-3-yl}-4-(2,2,2-trifluoroethoxy)pyridin-2-amine]",≤ 10
24,"Cn1cnc(S(=O)(=O)N2C[C@H](NC(c3ccccc3)C(F)(F)F)[C@@H](c3ccc(F)cc3)C2)c1 (stereo partly drawn) [Example 868, (3R,4S)-4-(4-fluorophenyl)-1-[(1-methyl-1H-imidazol-4-yl)sulfonyl]-N-(2,2,2-trifluoro-1-phenylethyl)pyrrolidin-3-amine]",≤ 10000
25,"Cn1cnc(S(=O)(=O)N2CC3c4ccccc4CCC3(Oc3cc(C(F)(F)F)ncn3)C2)c1 (centres unmarked) [Example 888, 2-[(1-methyl-1H-imidazol-4-yl)sulfonyl]-3a-{[6-(trifluoromethyl)pyrimidin-4-yl]oxy}-2,3,3a,4,5,9b-hexahydro-1H-benzo[e]isoindole]",≤ 1000
26,"Cn1cnc(S(=O)(=O)N2C[C@H](NCc3ccc(C(F)(F)F)cc3Cl)[C@@H](C3OCCCO3)C2)c1 [Example 904, (3R,4S)-N-[2-chloro-4-(trifluoromethyl)benzyl]-4-(1,3-dioxan-2-yl)-1-[(1-methyl-1H-imidazol-4-yl)sulfonyl]pyrrolidin-3-amine]",≤ 10
27,"Cn1cnc(S(=O)(=O)N2CC(C(=O)NCc3ccc(F)c(F)c3)C3(CCCCC3)C2)c1 (centres unmarked) [Example 882, N-(3,4-difluorobenzyl)-2-[(1-methyl-1H-imidazol-4-yl)sulfonyl]-2-azaspiro[4.5]decane-4-carboxamide]",≤ 1000

# Same assay, conditions: radioligand binding to human GlyT1c transporter-expressing CHO cell membranes
row,Molecule,Ki [nM]
1,"4-({(3R,4S)-1-[(1-methyl-1H-imidazol-4-yl)sulfonyl]-4-phenylpyrrolidin-3-yl}amino)-2,3-dihydro-1H-isoindol-1-one [Example 421]",≤ 10000
2,"6-butoxy-N-{(3R,4S)-4-(4-fluorophenyl)-1-[(1-methyl-1H-imidazol-4-yl)sulfonyl]pyrrolidin-3-yl}pyrimidin-4-amine [Example 717]",≤ 100
